# In US10363229B2, “Methods and compositions for the treatment of cancer” (priority 2009, dated 2019):
# Key:
# melanoma cells = test: Cell invasion assay (Transwell, ECM gel); type: cell-based, mouse; details: 2% methyl sulfone
# Experimental: Invasion assays were performed in Transwell chambers (Corning). The 8 μm pore membranes of the upper chambers were coated with ECM gel from Engelbreth-Holm-Swarm murine sarcoma (Sigma), diluted 1:6 with RPMI medium +/−2% methyl sulfone, and placed in a well with RPMI medium +/−2% methyl sulfone. Cells (1×10^5 cells/200 μl) were seeded into appropriate upper chambers in RMPI medium+/−2% methyl sulfone. After 20 hours of incubation at 37° C., cells were removed from top surface of the chamber and filters were fixed with 5% glutaraldeyde. Cells on the lower surface of the filter were stained with a 0.5% solution of toluidine blue. Membranes of inserts were removed with a razor, mounted between a glass slide and a coverslip, and held in place with scotch tape. Cells were photographed and counted at the Center for Cell Analysis and Modeling, University of Connecticut Health Center, Farmington, Conn., with an Axioplan CCD Microscope equipped with a 40×1.3 NA FL objective lens and high speed digital cooled CCD camera via Metamorph image acquisition and analysis software (Universal Imaging Corp., Downington, Pa.). All assays were performed in triplicate.
# A second classic characteristic of metastatic cells is their ability to migrate through an extracellular matrix. We determined whether methyl sulfone altered this ability in melanoma cells. […]
# [1] = system: SKP2 and p27 in 66 and M3 cells; test: Immunofluorescence of SKP2 and p27 in cancer cells (Example 2); type: cell-based, mouse; details: 2% methyl sulfone, four weeks
# From the text: SKP2 is a ubiquitin ligase that is active in cell nuclei and is expressed in many types of malignant cells. SKP2 promotes cell cycling and cell proliferation and promotes the degradation of the tumor suppressor protein p27. p27 is a tumor suppressor that is active when located in cell nuclei and in a non-phosphorylated form. p27 promotes cell cycle arrest and senescence.
# In normal differentiated cells, p27 (non-phosphorylated active form) is located in the nucleus. […] This was confirmed in the experiments described below. The nuclei were stained with DAPI (blue) and corresponding p27 (red) or SKP2 (red), and then merged the p27/DAPI and SKP2/DAPI photos.
# Cells were plated at 1×10^5 cells/ml on 12 mm round coverslips in 35 mm tissue culture plates (final volume of media was 1.5 ml/35 mm plate). At 24 hours after plating, media was replaced with fresh media containing 2% methyl sulfone and cells were incubated in media/2% methyl sulfone for four weeks. Media/2% methyl sulfone was changed every Monday, Wednesday, and Friday Immunofluorescence was performed at four weeks after plating to look for the presence of the following proteins: SKP2 and p27 (Santa Cruz Biotechnology). […]
# [2] = 20° C.; cited from earlier work
# [3] = system: microtubules in melanoma cells; test: Immunofluorescence of microtubules, incl. vinblastine stability test; type: cell-based, mouse
# Experimental: Cells were plated in 6-100 mm tissue culture plates, each containing 1 polylysine-coated 10-well slide, or plated onto polylysine-coated coverslips. Once cells were approximately 50% confluent, 2% methyl sulfone was added to cells for 10, 30, 60, 90, and 120 minutes. At each time point cells were placed in microtubule stabilizing buffer ( ) for 10 minutes followed by incubation in −20° C. methanol for 5 minutes. Cells were washed twice in 0.1% Triton X-100 in PBS at room temperature, then incubated with mouse monoclonal anti-alpha-tubulin antibody (Santa Cruz Biotech, Calif.; diluted 1/200 in 1% BSA/PBS) for 1.5 hours. Cells were washed 5 times in 0.1% Triton X-100/PBS, 3 minutes each. Cells were incubated with secondary antibody (Alexa Fluor 568 rabbit anti-mouse antibody; diluted 1/100 in 1%/PBS) for 30 minutes in the dark. Cells were washed five times in 0.1% Triton X-100/PBS, three minutes each. Cells were washed two times in PBS at 2 minute intervals and incubated with DAPI (1 μg/ml in PBS) for 5 minutes at room temperature and in the dark. Cells were washed in PBS for one minute. SlowFade was added to glass slides, coverslips were placed cell side down and sealed with nail polish. Microtubules were viewed at the Center for Cell Analysis and Modeling, University of Connecticut Health Center, Farmington, Conn., with an Axioplan CCD Microscope equipped with a 40×1.3 NA FL objective lens and Photometrics PXL-EEV37 high speed digital cooled CCD camera via Metamorph image acquisition and analysis software (Universal Imaging Corp., Downington, Pa.).
# One assay to test stability of microtubules is to give cells increasing concentrations of a microtubule-disassembly drug and use immunofluorescence microscopy to assess microtubule lengths (Caron et al). A higher concentration of drug will be required to disassemble the more stabilized microtubules. We used different concentrations of the anti-microtubule drug, vinblastine, to assess microtubule stability in control cells and cells incubated with 2% methyl sulfone.
substance,measurement,setting,value
methyl sulfone,cells that migrated through the extracellular matrix,melanoma cells,none and unable to pass through the membrane
same,SKP2 level and location,[1],low levels of SKP2 in the cytoplasm
same,p27 expression and location,[1],high expression of p27 in the nucleus
same,approximate water solubility,[2],~150 mg/mL
same,time to microtubule disassembly after adding drug,[3]; 2% methyl sulfone,≤ 10 min
same,microtubules in the presence of vinblastine (stability),[3]; 2% methyl sulfone plus 10^−7 M vinblastine,clearly visible
same,pattern of microtubule reassembly,"[3]; 2% methyl sulfone, over the next two hours",re-appeared in an orderly pattern
